Values after ≈ are worked out from the molar mass of the structure shown.

The conditions of the data set: buffer; pH 7.4; 200.0 µM.
In the case of `S=C(NCCc1cccc(Cl)c1)NCc1ccccc1`, the kinetic solubility came to 14.9 µg/mL (≈ 48.9 µM).
The value for `Cc1cccc(NC(=O)C2CC2c2ccccc2)c1C` (configuration not stated) was 3.8 µg/mL (≈ 14.3 µM); that for `NC(=O)Nc1ccc(C(=O)OCC(=O)Nc2ccc(Cl)cn2)cc1` was 5.1 µg/mL (≈ 14.6 µM).
Under `NS(=O)(=O)c1ccc(CNC(=O)c2ccc(NS(=O)(=O)c3cccs3)cc2)cc1` stands above 67.7 µg/mL.
Under `COc1ccc(C(C)NC(=S)NCc2ccc(F)cc2)cc1` (configuration not stated) stands 4.4 µg/mL (≈ 13.8 µM); under `COc1ccc(/C=C/C(=O)N2CCN(c3ccccn3)CC2)cc1OC`, above 53 µg/mL; under `Cc1ccc(CC(=O)N2CCN(C(=O)C3CCCO3)CC2)cc1` (configuration not stated), 43.2 µg/mL (≈ 137 µM).
With `COC(=O)[C@H](Cc1ccccc1)NC(=O)NCCc1ccc(F)cc1`, the solubility (kinetic) was above 51.7 µg/mL.
The value for `NCC(c1ccccc1)c1c[nH]c2ccccc12` (configuration not stated) was 22.1 µg/mL (≈ 93.5 µM); that for `COCCCNc1nc(N)c([N+](=O)[O-])c(NCC2CCCO2)n1` (configuration not stated) was above 49 µg/mL; that for `CC(=O)Oc1ccc(/C=C/c2nc3ccccc3c(=O)o2)cc1` was below 0.7 µg/mL.
The value for `Br.O=[N+]([O-])c1ccc(CSC2=NCCN2)cc1` was 43.2 µg/mL; that for `Cc1ccccc1NC(=S)NC(=O)Cc1ccc(Cl)cc1` was 0.5 µg/mL (≈ 1.57 µM).
In the case of `O=C(O)CN1C(=O)C(=O)N(Cc2ccc(Cl)c(Cl)c2)C1=O`, the solubility (kinetic) was found to be 46.1 µg/mL (≈ 139 µM).
Under `O=C(NCC(O)c1ccccc1)c1cccs1` (configuration not stated) stands above 37.1 µg/mL; under `N#Cc1cccc(NC(=O)CSc2cccc[n+]2[O-])c1`, above 42.8 µg/mL.
Under `CNC(=O)c1sc(-c2ccccn2)nc1C` stands above 35 µg/mL.
The value for `Cc1cccc2sc(NC(=O)CCn3cccc3)nc12` was 5.7 µg/mL (≈ 20 µM); that for `NC(=O)C1(c2ccccc2)CCC(=O)N1c1ccccc1` (configuration not stated) was above 42 µg/mL.
As for `COc1ccccc1NC(=O)CN1CCN(c2ccccc2)CC1`, the kinetic solubility is 35.3 µg/mL (≈ 108 µM).
Regarding `O=C(Nc1cc2c(cc1[N+](=O)[O-])OCCO2)c1cccnc1`, the kinetic solubility is 5.1 µg/mL (≈ 16.9 µM).
On to `CCc1ccc(CNC(=O)C2CC(=O)N(C3CCCC3)C2)cc1` (configuration not stated), for which the kinetic solubility was above 47.2 µg/mL.
The value for `CC1(C)CC(=O)C=C(Nc2ccc(O)c(C(=O)O)c2)C1` was above 41.3 µg/mL; that for `Cc1nc(N2CCC(C)CC2)c(C#N)c(C)c1[N+](=O)[O-]` was 0.9 µg/mL (≈ 3.28 µM).
Under `CC(C)(C)C(=O)O/N=C(\N)c1ccc([N+](=O)[O-])s1` stands 8.2 µg/mL (≈ 30.2 µM); under `O=C1CN(C(=O)CN2C(=O)NC(c3ccccc3)(c3ccccc3)C2=O)c2ccccc2N1`, 6.3 µg/mL (≈ 14.3 µM).
The compound `CC1(C)Cc2cccc(OCC(=O)NCc3cccs3)c2O1` had a kinetic solubility above 47.6 µg/mL.
For `OC(COc1ccc(F)cc1Cl)CN1CCc2ccccc2C1` (configuration not stated), the solubility (kinetic) worked out at 37.4 µg/mL (≈ 111 µM).
Turning to `CCOC(=O)c1cc(S(=O)(=O)N2CCOCC2)cn1C`, the solubility (kinetic) stood at 45.1 µg/mL (≈ 149 µM).
The value for `CC(C)(C)c1ccc(-c2noc(CCC(=O)Nc3cccnc3)n2)cc1` was 3.1 µg/mL (≈ 8.85 µM).
Under `COc1cc(OC)cc(C(=O)NCCOC23CC4CC(CC(C4)C2)C3)c1` stands 31.3 µg/mL (≈ 87.1 µM).
Regarding `O=S(=O)(c1ccc(F)cc1)N1CCN(CCc2ccccc2)CC1`, the kinetic solubility was found to be 4.1 µg/mL (≈ 11.8 µM).
Under `CCOc1ccc(C(C)=O)cc1CN1C(=O)C(=O)N(CC)C1=O` stands 41.5 µg/mL (≈ 130 µM); under `COC(=O)c1ccc(NC(=O)c2ccc(OC(C)=O)c(OC)c2)cc1`, 3.1 µg/mL (≈ 9.03 µM).
The value for `CC(C)CNC1CCS(=O)(=O)C1.Cl` (configuration not stated) was above 34.2 µg/mL.
Under `Cl.N=c1ccn(Cc2ccc([N+](=O)[O-])cc2)cc1` stands above 39.9 µg/mL; under `CC(C)C1Nc2ccc(C(=O)NC3CCCCC3)cc2NC1=O` (configuration not stated), above 47.3 µg/mL.
Compound `CCOc1ccc(NCCC(O)c2ccc(F)cc2)cc1` (configuration not stated) had a kinetic solubility of 30.9 µg/mL (≈ 107 µM).
The value for `NS(=O)(=O)c1ccc(CNC(=O)c2ccc(C(=O)c3ccccc3)cc2)cc1` was 14.6 µg/mL (≈ 37 µM); that for `COC(=O)/C(=C\C(=O)c1ccccc1)Nc1ccc(OC)cc1` was 7.6 µg/mL (≈ 24.4 µM).
The value for `COc1ccc(S(=O)(=O)NC2CCCCCC2)cc1C(N)=O` was 11.9 µg/mL (≈ 36.5 µM).
The value for `CCNC(=O)C1CCCN(c2nc(C)cc(C)n2)C1` (configuration not stated) was above 39.4 µg/mL; that for `Cc1nc(SCC(=O)O)c(C#N)c2c1CCCC2` was above 39.3 µg/mL.
`Cc1nc2ccccc2c(=O)n1CCCN1CCOCC1` displayed a kinetic solubility above 43.1 µg/mL.
`CCCCCC(=O)NC(CC(=O)OC)c1ccc2c(c1)OCO2` (configuration not stated) returned a solubility (kinetic) above 48.2 µg/mL.
The value for `COc1ccc(NC(=O)c2scc(S(=O)(=O)C(C)C)c2N)cc1` was 45.5 µg/mL (≈ 128 µM).
The value for `O=C1CC(NC2CCN(C(=O)c3cccc(F)c3)CC2)C(=O)N1` (configuration not stated) was above 47.9 µg/mL.
Take `O=C(NC1CCCC1)C1CCN(C(=O)c2ccc(Cl)cc2)CC1`: the kinetic solubility is above 50.2 µg/mL.
Under `CCn1c(=O)c2ccccc2n2c(SCC(N)=O)nnc12` stands above 45.5 µg/mL; under `Cc1ccccc1OC(C)C(=O)NCCC1=CCCCC1` (configuration not stated), 19.6 µg/mL (≈ 68.2 µM); under `CC(=O)Nc1ccc(NC(=O)CC(c2ccccc2)c2ccccc2)cc1`, 2.1 µg/mL (≈ 5.86 µM).
Regarding `CN(CC(=O)Nc1ccccc1Cl)C(=O)CCNC(=O)Nc1ccccc1`, the solubility (kinetic) was above 58.3 µg/mL.
